Source: patent US20130338184A1, “2-AMINO-NAPHTHYRIDINE DERIVATIVES” (priority 2011, published 2013)

Test: Metabolic stability in human liver S9 fractions
Format: in vitro ADME
Conditions: for % Δ of % parent remaining (relative to S): relative to Pagoclone (S); for % Δ of % parent remaining (relative to racemic): relative to Pagoclone (racemic)
Experimental: Materials: Human liver S9 (20 mg/mL) were obtained from Xenotech, LLC (Lenexa, Kans.). (3-nicotinamide adenine dinucleotide phosphate, reduced form (NADPH), magnesium chloride (MgCl2), and dimethyl sulfoxide (DMSO) were purchased from Sigma-Aldrich.
Determination of Metabolic Stability: 10 mM stock solutions of test compounds were prepared in DMSO. The 10 mM stock solutions were diluted to 0.1 mM or 1.0 mM in acetonitrile (ACN). The 20 mg/mL human liver […] were diluted to 2.5 mg/mL in 0.1 M potassium phosphate buffer, pH 7.4, containing 3 mM MgCl2 and incubated with alamethicin at 10 μg/mL for 15 minutes on ice. The diluted S9 were added to wells of a 96-well deep-well polypropylene plate in triplicate. 15 μL of the 0.1 mM or 1.0 mM test compound was added to the S9 and the mixture was pre-warmed for 10 minutes. Reactions were initiated by addition of pre-warmed NADPH solution. […] The reaction mixtures were incubated at 37° C., and 50 μL aliquots were removed at 0 and 60 minutes and added to shallow-well 96-well plates which contained 50 μL of ice-cold ACN with internal standard to stop the reactions. The plates were stored at 4° C. for 20 minutes after which 100 μL of water was added to the wells of the plate before centrifugation to pellet precipitated proteins. Supernatants were transferred to another 96-well plate and analyzed for amounts of parent remaining by LC-MS/MS using an Applied Bio-systems API 4000 mass spectrometer.
Data analysis: The in vitro tu2s for test compounds were calculated from the slopes of the linear regression of % parent remaining (1n) vs incubation time relationship.
k=−[slope of linear regression of % parent remaining(ln) vs incubation time]
Data analysis was performed using Microsoft Excel Software.

[1] = human liver S9 fractions, 1 μM tested compound
[2] = human liver S9 fractions, 10 μM tested compound

| Compound | % Parent remaining at 1 hr [1] [%] | % Parent remaining at 1 hr [2] [%] | % Δ of % parent remaining (relative to S) (1 μM tested compound) [%] | % Δ of % parent remaining (relative to racemic) (1 μM tested compound) [%] | % Δ of % parent remaining (relative to S) (10 μM tested compound) [%] | % Δ of % parent remaining (relative to racemic) (10 μM tested compound) [%] | metabolic stability compared to pagoclone and (S)-pagoclone (human liver S9 fractions, summary in words) |
| --- | --- | --- | --- | --- | --- | --- | --- |
| CC(C)CCC(=O)CC1c2ccccc2C(=O)N1c1ccc2ccc(Cl)nc2n1 [Pagoclone (S), 2-(7-chloro-1,8-naphthyridin-2-yl)-3-(5-methyl-2-oxohexyl)isoindolin-1-one, reference compound] | 41 ± 1.0 | 23 ± 3.9 | – | – | – | – | – |
| [2H]C([2H])(C(=O)C([2H])([2H])C([2H])([2H])C([2H])(C([2H])([2H])[2H])C([2H])([2H])[2H])C1c2ccccc2C(=O)N1c1ccc2ccc(Cl)nc2n1 (racemic) [Rac-141, (+/−)-2-(7-Chloro-1,8-naphthyridin-2-yl)-3-(5-(d3-methyl)-2-oxo-1,1,3,3,4,4,5,6,6,6-d10-hexyl)isoindolin-1-one] | 60 ± 8.4 | 37 ± 2.7 | 46 | 62 | 61 | 236 | substantially greater metabolic stability |
| CC(C)CCC(=O)CC1c2ccccc2C(=O)N1c1ccc2ccc(Cl)nc2n1 (racemic) [Pagoclone (racemic), 2-(7-chloro-1,8-naphthyridin-2-yl)-3-(5-methyl-2-oxohexyl)isoindolin-1-one, reference compound] | 37 ± 3.8 | 11 ± 1.2 | – | – | – | – | – |
